Here are results for 6 molecules from paper PMC12173945, “Import mechanism of peroxisomal proteins with an N-terminal signal sequence” (Nature Cell Biology, 2025).

For test [1], the system named is YG hydrogel (wild-type YG-domain polypeptide of PEX13). Description: YG hydrogel permeation assay, wild-type hydrogel (Fig. 2, Fig. 3g, Extended Data Fig. 9d). To be noted: for Displacement: PEX5-21 + PEX7. The protocol:
A solution of the purified wild-type YG-domain polypeptide (or the variant lacking the KPWE motif) was concentrated to 2 mM in 50 mM HEPES·NaOH pH 7.8 at RT, 2 M urea and 2 mM TCEP. Aliquots of 2 µl were then spotted on the bottom of multiple wells of a 96-well glass-bottomed plate (Cellvis, P96-1.5H-N), which was then sealed with a gas-impermeable AlumaSeal II film (Hampton Research, HR8-069) to prevent desiccation and incubated at RT for 24 h. Before each assay, the resulting gels were equilibrated overnight at RT in a 100-fold excess of Assay Buffer (25 mM HEPES·NaOH pH 7.8 at RT, 150 mM NaCl and 1 mM TCEP). A 0.5 µM solution of fluorescently labelled protein in Assay Buffer was then added to the samples, with or without additional components at the concentrations indicated in the text, and incubated at RT. Gels were imaged at the times indicated in the text using a Nikon A1R point-scanning confocal system consisting of an inverted Nikon Eclipse Ti microscope and a Nikon ×20 0.75 NA Plan Apo air objective. The objective was centred on the gel edge and focus was maintained 5 µm above the glass surface using the Nikon Perfect Focus System. Fluorescence was excited through a 405/488/561/647 quad-band dichroic (Chroma), using a 488-nm solid-state laser (Coherent) and a galvano scanner. A 50-nm emission band was collected on a gallium arsenide phosphide detector, using an ET525/50m (525 ± 25 nm) single-band bandpass filter (Chroma) and a pinhole dilated to 0.9 Airy units. Images were acquired using the Nikon NIS-Elements software with a pixel size of 1 µm and a 12-bit digitizer. Imaging parameters were configured to maximize the SNR while avoiding saturation. All samples intended to be compared were imaged using identical acquisition settings.
For the YG hydrogel permeation assay, images were first oriented such that each gel edge faced the same direction. Fluorescence profiles across the buffer–gel interface were then generated by centering a 60 × 300 µm rectangular area on the gel edge and then measuring the mean fluorescence at each position within this selection. To express the resulting values in terms of fold enrichment, the fluorescence at each position along the selection was normalized to the average fluorescence in the buffer and plotted in terms of the distance from the gel edge.
To calculate permeation rates through the YG hydrogel, a 60 × 300 µm rectangular area was first centred on the gel edge. The resulting region was then thresholded to demarcate the permeation zone (that is, the distance traversed by the fluorescent species) from the buffer and non-permeated part of the gel. The width of the area above the threshold was then measured and plotted as a function of time. A linear fit to the data yielded the permeation rate.

Test [2] deals with yeast PEX7 bound to the ∆APH mutant of GST-tagged PEX39. Description: Competitive binding: peptide displacement of PEX7 from GST-tagged ∆APH PEX39 beads (Fig. 8b). The following applies: for Stripping of PEX7 off PEX39 lacking the APH: peptide competition, Fig. 8b. Also on record: species or system yeast (S. cerevisiae). The protocol:
For the assay shown in Fig. 8b, the beads were first incubated with yeast PEX7 and the GST-tagged ∆APH variant of yeast PEX39 (each at 1 µM) for 30 min at 25 °C with agitation. Varying concentrations of the peptides, as indicated in the text, were then added and the reactions were incubated for a further 1 h under the same conditions. The beads were finally sedimented and the resulting supernatant fractions resolved by SDS–PAGE as above.
To calculate the fraction bound in the quantitative binding assay, digitized images of Coomassie-stained gels were first converted into 16-bit grayscale and their pixel intensities inverted. The mean pixel intensity was then measured within a rectangular selection encompassing each PEX7 protein band and the mean intensity of the background was subtracted from the measured values. The background-corrected intensities (corresponding to unbound PEX7 remaining in solution) were in turn subtracted from the intensity of the PEX7 band in a sample without PEX39 (that is, total PEX7). The resulting difference (corresponding to PEX7 that had bound to the beads) was finally divided by the total PEX7 intensity to yield the fraction bound. The data were fitted either to a standard binding isotherm or a competitive-binding isotherm, as appropriate, to estimate the observed binding constants.

The next test has as its system yeast PEX7. As to the kind of experiment: Bead-binding assay: peptide-conjugated beads, recruitment of PEX7–GFP or PTS2–GFP. Also on record: species or system yeast (S. cerevisiae). To be noted: 1 h; for Recruitment of PTS2–GFP to peptide-conjugated beads: 1 µM PEX7 and 1 µM receptor, 1 µM cargo; for Recruitment of PEX7–GFP to peptide-conjugated beads: peptide on thiol-reactive beads, fluorescence microscopy. From the text:
(§1) Cysteine-containing peptides were covalently conjugated to thiol-reactive SulfoLink coupling resin (Thermo Fisher, catalogue number 20401) according to the manufacturer’s instructions. The prepared beads were then mixed with Assay Buffer containing the fluorescently labelled protein as well as additional components indicated in the text, and the resulting bead suspensions were transferred to a 384-well glass-bottomed plate (Cellvis, P384-1.5H-N). GST-fusion proteins were instead mixed with glutathione agarose 4B (Prometheus, 20-543) in Assay Buffer containing the fluorescently labelled protein and additional components indicated in the text; the resulting bead suspensions were then transferred to a glass-bottomed plate as above. The plates were incubated at RT for the durations specified in the text and directly imaged on the spinning-disk confocal platform described earlier for peroxisomal import reactions in Xenopus egg extract. Note that imaging the beads directly in the binding reaction preserves the equilibrium and thereby allows even weak interactions to be detected. Fluorescence was collected through a Nikon ×10 0.45 NA Plan Apo air objective, and images were acquired using the Nikon NIS-Elements software and a 16-bit digitizer without binning. Imaging parameters were configured to maximize the SNR while avoiding saturation. Samples intended to be compared were imaged using identical acquisition settings.

Test [3] deals with PEX7–receptor–cargo complex on PEX39-coated beads. Description: Bead-binding assay: recruitment of PEX7–receptor–cargo complex to PEX39-coated beads (Fig. 7d, 8a). On the set-up: species or system yeast (S. cerevisiae). The following applies: 100 µM peptide, overnight, Fig. 8a.
Excerpt: as §1

For another test, the target named is T1, yeast PEX7, P39108.
T1 chain: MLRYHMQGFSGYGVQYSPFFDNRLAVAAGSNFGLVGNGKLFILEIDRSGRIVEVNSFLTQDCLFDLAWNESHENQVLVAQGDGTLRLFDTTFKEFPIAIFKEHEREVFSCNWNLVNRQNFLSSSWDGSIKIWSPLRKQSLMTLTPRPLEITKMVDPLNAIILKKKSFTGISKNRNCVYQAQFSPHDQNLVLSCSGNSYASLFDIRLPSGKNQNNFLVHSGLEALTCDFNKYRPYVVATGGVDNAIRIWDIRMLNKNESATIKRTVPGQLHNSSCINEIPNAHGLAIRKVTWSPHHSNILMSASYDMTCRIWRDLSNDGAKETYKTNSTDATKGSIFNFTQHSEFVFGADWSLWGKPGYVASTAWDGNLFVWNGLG
As to the kind of experiment: bead sedimentation (GST pull-down depletion) assay, SDS-PAGE with Coomassie quantification of PEX7 left in the supernatant. The following applies: chain shown with the change; 1 µM yeast PEX7; varying GST-PEX39 concentrations; 1 h; 25 °C; parent: 0.60 ± 0.056.

Test [4] deals with T2, yeast PEX7 fused at the C terminus to GFP (PEX7–GFP) (yeast (S. cerevisiae), UniProt P39108 1-375).
T2 construct: PEX7, yeast (S. cerevisiae); not shown: GST, N-terminal, cleaved; GFP, C-terminal, kept
T2 sequence (looked up): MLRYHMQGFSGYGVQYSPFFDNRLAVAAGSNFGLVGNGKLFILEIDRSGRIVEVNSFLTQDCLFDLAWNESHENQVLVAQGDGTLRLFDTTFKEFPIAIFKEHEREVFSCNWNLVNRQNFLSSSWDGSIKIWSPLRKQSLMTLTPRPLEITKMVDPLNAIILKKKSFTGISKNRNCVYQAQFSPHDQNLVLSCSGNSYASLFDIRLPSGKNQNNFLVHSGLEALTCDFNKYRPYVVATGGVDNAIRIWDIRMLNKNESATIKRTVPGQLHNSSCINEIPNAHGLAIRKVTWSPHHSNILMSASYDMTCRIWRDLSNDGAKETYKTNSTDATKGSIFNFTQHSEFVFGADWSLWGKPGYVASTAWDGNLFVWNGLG
Description: YG hydrogel release assay (confocal microscopy); hydrogels equilibrated 3 h at RT with 0.5 µM PEX7–GFP or PEX5–GFP, with or without PTS2 peptide and receptor; PEX39 then spiked in and gels imaged every 2 min for 1 h. The following applies: both partners purified.

On to “PTS1: mEGFP fused at the C terminus to an enhanced PTS1 import signal (GYKGLKSKL)”, for which the Displacement amounted to 0.000 µm in test [1] (0 min, replicate 1); 0.000 µm in test [1] (0 min, replicate 2); 0.000 µm in test [1] (0 min, replicate 3); 44.992 µm in test [1] (30 min, replicate 1); 39.993 µm in test [1] (30 min, replicate 2); 31.994 µm in test [1] (30 min, replicate 3). In addition, the Displacement in test [1] (60 min, replicate 1) stood at 64.988 µm; in test [1] (60 min, replicate 2), 59.989 µm; in test [1] (60 min, replicate 3) it was 45.992 µm.
“CSSTAVPEPRWKPTSASLEE [scrambled peptide, KPWE peptide with amino acids 8 and 10–13 rearranged]”: the Fraction bound in test [2] ([Peptide] 10 µM, replicate 1) was 0.936; in test [2] ([Peptide] 10 µM, replicate 2), 0.865; in test [2] ([Peptide] 10 µM, replicate 3), 0.914; in test [2] ([Peptide] 30 µM, replicate 1) it was 0.947; in test [2] ([Peptide] 30 µM, replicate 2), 0.840; in test [2] ([Peptide] 30 µM, replicate 3) it was 0.887. Also, the Fraction bound in test [2] ([Peptide] 100 µM, replicate 1) came to 0.965; in test [2] ([Peptide] 100 µM, replicate 2), 0.864; in test [2] ([Peptide] 100 µM, replicate 3), 0.888; in test [2] ([Peptide] 300 µM, replicate 1), 0.952; in test [2] ([Peptide] 300 µM, replicate 2), 0.871; in test [2] ([Peptide] 300 µM, replicate 3) it was 0.887. For the same molecule, the Fraction bound in test [2] ([Peptide] 1000 µM, replicate 1) worked out at 0.902; in test [2] ([Peptide] 1000 µM, replicate 2) it was 0.861; in test [2] ([Peptide] 1000 µM, replicate 3) it was 0.848. Also, the “Stripping of PEX7 off PEX39 lacking the APH” value in test [2] was “could not”. For the same molecule, the “Recruitment of PTS2–GFP to peptide-conjugated beads” value in the test on yeast PEX7 is on record as “No binding was seen”. The “Recruitment of PEX7–GFP to peptide-conjugated beads” value in the test on yeast PEX7 is recorded as “could not”. Further, the “Effect of peptide on recruitment of the PEX7–receptor–cargo complex to PEX39-coated beads” value in test [3] is reported as “had no effect”.
Consider “CSSTAVPRPKPWETSASLEE [KPWE peptide, residues 2–20 of S. cerevisiae PEX13 with an additional N-terminal cysteine]”, for which the “Kobs (observed binding constant)” value in test [2] (PEX7 and GST-PEX39 ∆APH each 1 µM, peptide added 1 h, 25 °C, competitive-binding isotherm, mean ± s.e.m., three independent experiments, ND = binding not detectable) stood at 41 ± 1.2 µM. The Fraction bound was determined as 0.810 in test [2] ([Peptide] 10 µM, replicate 1); 0.769 in test [2] ([Peptide] 10 µM, replicate 2); 0.841 in test [2] ([Peptide] 10 µM, replicate 3); 0.666 in test [2] ([Peptide] 30 µM, replicate 1); 0.688 in test [2] ([Peptide] 30 µM, replicate 2); 0.732 in test [2] ([Peptide] 30 µM, replicate 3). Further, the Fraction bound in test [2] ([Peptide] 100 µM, replicate 1) stood at 0.458; in test [2] ([Peptide] 100 µM, replicate 2), 0.521; in test [2] ([Peptide] 100 µM, replicate 3) it was 0.552; in test [2] ([Peptide] 300 µM, replicate 1), 0.302; in test [2] ([Peptide] 300 µM, replicate 2) it was 0.372; in test [2] ([Peptide] 300 µM, replicate 3), 0.402. Moreover, the Fraction bound in test [2] ([Peptide] 1000 µM, replicate 1) worked out at 0.141; in test [2] ([Peptide] 1000 µM, replicate 2) it was 0.198; in test [2] ([Peptide] 1000 µM, replicate 3), 0.200. In test [2], the “Stripping of PEX7 off PEX39 lacking the APH” value is reported as “could strip off PEX7 from PEX39 lacking the APH”. Besides, the “Recruitment of PTS2–GFP to peptide-conjugated beads” value in the test with yeast PEX7 is “could recruit PTS2–GFP only when PEX7 and the receptor were both present”. Moreover, the “Recruitment of PEX7–GFP to peptide-conjugated beads” value in the test with yeast PEX7 is listed as “could recruit yeast PEX7 fused at the C terminus to GFP”. The “Effect of peptide on recruitment of the PEX7–receptor–cargo complex to PEX39-coated beads” value in test [3] is on record as “no longer efficiently recruited to PEX39-coated beads”.

B1: GST-tagged wild-type yeast PEX39 (GST–PEX39), P47087 ΔRPWE (RPWE motif converted to alanine) (protein)
chain: MAAGGELSYEELLDHILNNKPIPNIVEVPNVTLDEGLASTPSLRPRPAAAAGQLQHQSHQGSLDKPNISLDIDQESLEGMTSLTRLSECYDIQSKLQINDSDNDNDDNNNDNNKGDGNDDDNNTVTANPTAR
As to B1, in the test with yeast PEX7, P39108, the other: Kobs (observed binding constant) is 190 µM.

B2: wild-type yeast PEX39 (natural protein, UniProt P47087 1-132, looked up)
chain: MAAGGELSYEELLDHILNNKPIPNIVEVPNVTLDEGLASTPSLRPRPRPWEGQLQHQSHQGSLDKPNISLDIDQESLEGMTSLTRLSECYDIQSKLQINDSDNDNDDNNNDNNKGDGNDDDNNTVTANPTAR
notes: PEX39, yeast; also called WT; not shown: GST, N-terminal, cleaved
As for B2, the binding result in test [4] is recorded as “binds”.

B3: PEX39–GFP: PEX39 fused at the C terminus to a GSG linker and mEGFP (protein)
chain: MAAGGELSYEELLDHILNNKPIPNIVEVPNVTLDEGLASTPSLRPRPRPWEGQLQHQSHQGSLDKPNISLDIDQESLEGMTSLTRLSECYDIQSKLQINDSDNDNDDNNNDNNKGDGNDDDNNTVTANPTAR
modifications: left off: GST, N-terminal, cleaved | GFP, C-terminal, kept
notes: PEX39 fused at the C terminus to a GSG linker and mEGFP
As for B3, the “Entry into YG hydrogel” value in test [1] (wild-type hydrogel) is “did not by itself enter the YG hydrogel”.
